Test results taken from US11053204B2, “Pyrimidinyloxy benzene derivatives as herbicides” (FMC Corporation, priority 2015, dated 2021).

Assays:
Type in all cases: in vivo
[1] = test system: velvetleaf (Abutilon theophrasti); experiment: Test C preemergence, plant response rating; details: Abutilon theophrasti, pre-emergence, Preemergence
Outline: (§1)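 After sowing in loam–sand blend or silt loam, pots were sprayed preemergence; separately grown 1- to 4-leaf plants were sprayed postemergence. Following 13 to 15 d under greenhouse conditions, injury was rated visually on a 0 to 100 scale.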

soybean (Glycine max) = experiment: Test C preemergence, plant response rating; details: Glycine max, pre-emergence, Preemergence
Outline: as §1

[2] = test system: oilseed rape (Brassica napus); experiment: Test C preemergence, plant response rating; details: Brassica napus, pre-emergence, Preemergence
Outline: as §1

[3] = test system: wheat (winter wheat, Triticum aestivum); experiment: Test C preemergence, plant response rating; details: Triticum aestivum, pre-emergence, Preemergence
Outline: as §1

[4] = test system: crabgrass, large (large crabgrass, Digitaria sanguinalis); experiment: Test C preemergence, plant response rating; details: Digitaria sanguinalis, pre-emergence, Preemergence
Outline: as §1

[5] = test system: ryegrass, Italian (Italian ryegrass, Lolium multiflorum); experiment: Test C preemergence, plant response rating; details: Lolium multiflorum, pre-emergence, Preemergence
Outline: as §1

corn (Zea mays) = experiment: Test C preemergence, plant response rating; details: Zea mays, pre-emergence, Preemergence
Outline: as §1

[6] = test system: foxtail, giant (giant foxtail, Setaria faberii); experiment: Test C preemergence, plant response rating; details: Setaria faberi, pre-emergence, Preemergence
Outline: as §1

[7] = test system: ragweed (common ragweed, Ambrosia elatior); experiment: Test C preemergence, plant response rating; details: Ambrosia artemisiifolia, pre-emergence, Preemergence
Outline: as §1

[8] = test system: nutsedge, yellow (yellow nutsedge, Cyperus esculentus); experiment: Test C preemergence, plant response rating; details: Cyperus, pre-emergence, Preemergence
Outline: as §1

[9] = test system: lambsquarters (Chenopodium album); experiment: Test C preemergence, plant response rating; details: Chenopodium album, pre-emergence, Preemergence
Outline: as §1

[10] = test system: blackgrass (Alopecurus myosuroides); experiment: Test C preemergence, plant response rating; details: Alopecurus myosuroides, pre-emergence, Preemergence
Outline: as §1

[11] = test system: morningglory (Ipomoea coccinea); experiment: Test C preemergence, plant response rating; details: Ipomoea, pre-emergence, Preemergence
Outline: as §1

[12] = test system: waterhemp (common waterhemp, Amaranthus rudis); experiment: Test C preemergence, plant response rating; details: Amaranthus tuberculatus, pre-emergence, Preemergence
Outline: as §1

[13] = test system: velvetleaf (Abutilon theophrasti); experiment: Test C postemergence, plant response rating; details: Abutilon theophrasti, post-emergence
Outline: as §1

[14] = test system: oilseed rape (Brassica napus); experiment: Test C postemergence, plant response rating; details: Brassica napus, post-emergence
Outline: as §1

[15] = test system: wheat (winter wheat, Triticum aestivum); experiment: Test C postemergence, plant response rating; details: Triticum aestivum, post-emergence
Outline: as §1

[16] = test system: foxtail, giant (giant foxtail, Setaria faberii); experiment: Test C postemergence, plant response rating; details: Setaria faberi, post-emergence
Outline: as §1

[17] = test system: blackgrass (Alopecurus myosuroides); experiment: Test C postemergence, plant response rating; details: Alopecurus myosuroides, post-emergence
Outline: as §1

[18] = test system: morningglory (Ipomoea coccinea); experiment: Test C postemergence, plant response rating; details: Ipomoea, post-emergence
Outline: as §1

[19] = 125 g ai/ha, scale 0 to 100 (0 no effect, 100 complete control)
[20] = 62 g ai/ha, scale 0 to 100 (0 no effect, 100 complete control)

## O=C(CCC(F)(F)F)c1c(Cl)cccc1Oc1ncc(Cl)cn1 [Compound 107, 1-[2-chloro-6-[(5-chloro-2-pyrimidinyl)oxy]phenyl]-4,4,4-trifluoro-1-butanone]
[1]; 125 g ai/ha, scale of 0 to 100
  pest or weed control at 125 g/ha: 98%
[1]; 31 g ai/ha, scale 0 to 100
  pest or weed control at 31 g/ha: 75%
[1]; 62 g ai/ha, scale 0 to 100
  pest or weed control at 62 g/ha: 98%
Soybean (Glycine max); 125 g ai/ha, scale of 0 to 100
  plant injury at 125 g/ha: 45%
Soybean (Glycine max); 31 g ai/ha, scale 0 to 100
  plant injury at 31 g/ha: 20%
Soybean (Glycine max); 62 g ai/ha, scale 0 to 100
  plant injury at 62 g/ha: 35%
[2]; 125 g ai/ha, scale of 0 to 100
  plant injury at 125 g/ha: 98%
[2]; 31 g ai/ha, scale 0 to 100
  plant injury at 31 g/ha: 40%
[2]; 62 g ai/ha, scale 0 to 100
  plant injury at 62 g/ha: 85%
[3]; 125 g ai/ha, scale of 0 to 100
  plant injury at 125 g/ha: 35%
[3]; 31 g ai/ha, scale 0 to 100
  plant injury at 31 g/ha: 10%
[3]; 62 g ai/ha, scale 0 to 100
  plant injury at 62 g/ha: 15%
[4]; 125 g ai/ha, scale of 0 to 100
  pest or weed control at 125 g/ha: 100%
[4]; 16 g ai/ha, scale 0 to 100
  pest or weed control at 16 g/ha: 98%
[4]; 31 g ai/ha, scale 0 to 100
  pest or weed control at 31 g/ha: 98%
[4]; 62 g ai/ha, scale 0 to 100
  pest or weed control at 62 g/ha: 100%
[5]; 125 g ai/ha, scale of 0 to 100
  pest or weed control at 125 g/ha: 90%
[5]; 31 g ai/ha, scale 0 to 100
  pest or weed control at 31 g/ha: 35%
[5]; 62 g ai/ha, scale 0 to 100
  pest or weed control at 62 g/ha: 70%
Corn (Zea mays); 125 g ai/ha, scale of 0 to 100
  Corn plant response rating (crop injury, 0 = no effect, 100 = complete kill) at 125 g/ha: 45%
Corn (Zea mays); 16 g ai/ha, scale 0 to 100
  Corn plant response rating (crop injury, 0 = no effect, 100 = complete kill) at 16 g/ha: 0%
Corn (Zea mays); 31 g ai/ha, scale 0 to 100
  Corn plant response rating (crop injury, 0 = no effect, 100 = complete kill) at 31 g/ha: 0%
Corn (Zea mays); 62 g ai/ha, scale 0 to 100
  Corn plant response rating (crop injury, 0 = no effect, 100 = complete kill) at 62 g/ha: 15%
[6]; 125 g ai/ha, scale of 0 to 100
  pest or weed control at 125 g/ha: 98%
[6]; 31 g ai/ha, scale 0 to 100
  pest or weed control at 31 g/ha: 98%
[6]; 62 g ai/ha, scale 0 to 100
  pest or weed control at 62 g/ha: 98%
[7]; 125 g ai/ha, scale of 0 to 100
  pest or weed control at 125 g/ha: 50%
[7]; 31 g ai/ha, scale 0 to 100
  pest or weed control at 31 g/ha: 30%
[7]; 62 g ai/ha, scale 0 to 100
  pest or weed control at 62 g/ha: 50%
[8]; 125 g ai/ha, scale of 0 to 100
  pest or weed control at 125 g/ha: 0%
[8]; 31 g ai/ha, scale 0 to 100
  pest or weed control at 31 g/ha: 0%
[8]; 62 g ai/ha, scale 0 to 100
  pest or weed control at 62 g/ha: 0%
[9]; 125 g ai/ha, scale of 0 to 100
  pest or weed control at 125 g/ha: 95%
[9]; 31 g ai/ha, scale 0 to 100
  pest or weed control at 31 g/ha: 75%
[9]; 62 g ai/ha, scale 0 to 100
  pest or weed control at 62 g/ha: 85%
[10]; 125 g ai/ha, scale of 0 to 100
  pest or weed control at 125 g/ha: 90%
[10]; 16 g ai/ha, scale 0 to 100
  pest or weed control at 16 g/ha: 60%
[10]; 31 g ai/ha, scale 0 to 100
  pest or weed control at 31 g/ha: 90%
[10]; 62 g ai/ha, scale 0 to 100
  pest or weed control at 62 g/ha: 90%
[11]; 125 g ai/ha, scale of 0 to 100
  pest or weed control at 125 g/ha: 85%
[11]; 31 g ai/ha, scale 0 to 100
  pest or weed control at 31 g/ha: 0%
[11]; 62 g ai/ha, scale 0 to 100
  pest or weed control at 62 g/ha: 40%
[12]; 125 g ai/ha, scale of 0 to 100
  pest or weed control at 125 g/ha: 100%
[12]; 31 g ai/ha, scale 0 to 100
  pest or weed control at 31 g/ha: 98%
[12]; 62 g ai/ha, scale 0 to 100
  pest or weed control at 62 g/ha: 100%
[13]; 16 g ai/ha, scale of 0 to 100
  pest or weed control at 16 g/ha: 60%
[13]; 31 g ai/ha, scale 0 to 100
  pest or weed control at 31 g/ha: 65%
[13]; [19]
  pest or weed control at 125 g/ha: 90%
[13]; rate not given, scale 0 to 100, read-out: Plant response rating, Velvetleaf
  pest or weed control at 62 g/ha: 75%
[14]; 16 g ai/ha, scale of 0 to 100
  plant injury at 16 g/ha: 65%
[14]; 31 g ai/ha, scale 0 to 100
  plant injury at 31 g/ha: 80%
[14]; [20]
  plant injury at 62 g/ha: 95%
[14]; [19]
  plant injury at 125 g/ha: 98%
[15]; 16 g ai/ha, scale of 0 to 100
  plant injury at 16 g/ha: 5%
[15]; 31 g ai/ha, scale 0 to 100
  plant injury at 31 g/ha: 5%
[15]; [19]
  plant injury at 125 g/ha: 30%
[15]; rate not given, scale 0 to 100, read-out: Plant response rating, Wheat
  plant injury at 62 g/ha: 10%
[16]; 16 g ai/ha, scale of 0 to 100
  pest or weed control at 16 g/ha: 10%
[16]; 31 g ai/ha, scale 0 to 100
  pest or weed control at 31 g/ha: 10%
[16]; [20]
  pest or weed control at 62 g/ha: 20%
[16]; [19]
  pest or weed control at 125 g/ha: 25%
[17]; 16 g ai/ha, scale 0 to 100
  pest or weed control at 16 g/ha: 5%
[17]; 31 g ai/ha, scale 0 to 100
  pest or weed control at 31 g/ha: 20%
[17]; [20]
  pest or weed control at 62 g/ha: 20%
[17]; [19]
  pest or weed control at 125 g/ha: 60%
[18]; 16 g ai/ha, scale of 0 to 100
  pest or weed control at 16 g/ha: 20%
[18]; 31 g ai/ha, scale 0 to 100
  pest or weed control at 31 g/ha: 60%
[18]; [20]
  pest or weed control at 62 g/ha: 80%
[18]; [19]
  pest or weed control at 125 g/ha: 95%
